Assay results taken from article PMC6895180 (Nature Communications, 2019).
Values joined by “and” are separate entries in the source; they are usually repeats but may differ in a detail not shown here. Equal entries are not always repeated.

Columns and labels:
T. brucei ADKIN = target: T1, T. brucei ADKIN (Trypanosoma brucei brucei, UniProt Q584S6); test: ADKIN assay (phosphorylation by purified recombinant enzyme, HPLC); assay type: biochemical; parameters: Conc.9-MP: unit not given here; details: for Conc.9-MP: TbAK assay; for Act (U/mg): TbAK
T1 sequence (Q584S6 1-345): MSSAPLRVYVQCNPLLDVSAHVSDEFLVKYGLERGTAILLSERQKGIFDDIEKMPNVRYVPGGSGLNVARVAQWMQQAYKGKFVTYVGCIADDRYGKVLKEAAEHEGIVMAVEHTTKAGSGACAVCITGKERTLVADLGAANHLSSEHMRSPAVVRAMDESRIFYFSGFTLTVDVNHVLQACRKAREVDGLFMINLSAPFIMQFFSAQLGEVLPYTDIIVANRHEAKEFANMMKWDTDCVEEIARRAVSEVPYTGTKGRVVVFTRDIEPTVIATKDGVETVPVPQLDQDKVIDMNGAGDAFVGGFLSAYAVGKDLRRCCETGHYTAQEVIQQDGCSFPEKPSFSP
Protocol: The T. brucei ADKIN enzyme was diluted in a buffer containing 0.05% (v/v) Tween-20, 50 mM KCl, 0.1 mM dithiothreitol, and 50 mM Tris-HCl, pH 7.5 (dilution buffer), prior to use in the assay. The final assay mixture contained 12.5 ng T. brucei ADKIN, a range between 50 and 1000 µM of nucleoside 9 (or 1000 µM deoxyadenosine in the control reaction), 100 mM KCl, 10 mM MgCl2, 0.5 mM ATP, 5 mM potassium phosphate and 50 mM Tris-HCl, pH 7.5. The assay was incubated at 37 °C for 30 min, and subsequently heated for 2 min at 100 °C to inactivate the enzyme, diluted with 2 volumes of water, centrifuged through a Nanosep 3k Omega filter and mixed 1:1:2 with water and mobile phase. The HPLC analysis was performed on a 2.1 × 150 mm ACE Excel C18 column using a mobile phase composition 4A:76B:20C (see nucleotide pool analysis, Supplementary Information for details). Using these conditions, consecutive samples could be loaded (Supplementary Fig. 12). After 4–5 samples, the column was washed with high percent A (80A:20C) to remove bound ADP and ATP before re-equilibrating the column to original conditions.

[1] = test system: bloodstream form T. brucei 427WT; test: Wash-out experiments with T. brucei; assay type: cell-based, Trypanosoma brucei
Protocol: Wash-out experiments with T. brucei
A culture of bloodstream form T. brucei 427WT, at mid-log phase of growth, was harvested and resuspended at a density of 10^5 cells mL-1, in fresh medium containing either no test compound, or […]
The cultures were incubated under standard conditions (37 °C/5% CO2) and cell counts were performed manually using a haemocytometer under phase contrast microscopy, every 24 h. The culture in continuous presence of analogue 9 was split in two at 8 h and 48 h (as indicated with arrows in Supplementary Figure S2). The split cultures were centrifuged and resuspended in the same volume of either fresh medium without test compound or fresh medium with the same concentration of compound 9 as before, reincubated. The detection limit for the manual cell count was 10^4 cells mL-1. […]

[2] = Metabolic stability, rat liver microsomes (phase I and II)
Protocol: Mouse, rat, and pooled human liver microsomes were purchased from a commercial source (Corning) and stored at -80 °C. NADPH generating system solutions A and B and UGT reaction mix solutions A and B (Corning) were kept at -20°C. The test compound and the reference compounds diclofenac (MW […]
microsomal stability assay was carried out based on the BD Biosciences Guidelines for Use (TF000017 Rev1.0) with minor adaptations. Metabolic stability of the compounds was studied through the CYP450 superfamily (phase I metabolism) by fortification with reduced nicotinamide adenine dinucleotide phosphate (NADPH) and through uridine glucuronosyl-transferase (UGT) enzymes (phase II metabolism) by fortification with uridine diphosphate glucuronic acid (UDPGA). For the CYP450 and other NADPH dependent enzymes, both compounds were incubated at 5 µM together with 0.5 mg mL-1 liver microsomes in potassium phosphate buffer in a reaction started by the addition of 1 mM NADPH […]
At these time points, 20 µL was withdrawn from the reaction mixture and 80 µL cold acetonitrile (ACN) containing the internal standard tolbutamide, was added to inactivate the enzymes and precipitate the proteins. The mixture was vortexed for 30 s and centrifuged at 4 °C for 5 min at 15,000 rpm. The supernatant was stored at -80°C until analysis. For the UGT enzymes, both compounds were incubated at 5 µM together with 0.5 mg mL-1 liver microsomes in a reaction started by the addition of 2 mM UDPGA cofactor. The corresponding loss of parent compound was determined using liquid chromatography (UPLC) (Waters AquityTM) coupled with tandem quadrupole mass spectrometry (MS²) (Waters XevoTM), equipped with an electrospray ionization (ESI) interface and operated in multiple reaction monitoring (MRM) mode. […]

Nc1ncnc2c1ccn2[C@@H]1O[C@H](CO)C[C@H]1O [Compound 9, 3’-deoxytubercidin]
Conc.9-MP (T. brucei ADKIN; substrate 50 µM, 3 series): 11.2244 and 8.987 and 9.705 | Conc.9-MP (T. brucei ADKIN; substrate 100 µM): 19.1548 and 15.376 and 17.4986 | Conc.9-MP (T. brucei ADKIN; substrate 250 µM): 33.0019 and 26.0907 and 28.4308 | Conc.9-MP (T. brucei ADKIN; substrate 500 µM): 42.1131 and 37.0292 and 37.487 | Conc.9-MP (T. brucei ADKIN; substrate 1000 µM): 45.1958 and 43.7663 and 38.425 | Act (U/mg) (T. brucei ADKIN; substrate 50 µM, U = µmol/min): 1.497 U/mg and 1.198 U/mg and 1.294 U/mg | Act (U/mg) (T. brucei ADKIN; substrate 100 µM): 2.554 U/mg and 2.05 U/mg and 2.333 U/mg | Act (U/mg) (T. brucei ADKIN; substrate 250 µM): 4.4 U/mg and 3.479 U/mg and 3.791 U/mg | Act (U/mg) (T. brucei ADKIN; substrate 500 µM): 5.615 U/mg and 4.937 U/mg and 4.998 U/mg | Act (U/mg) (T. brucei ADKIN; substrate 1000 µM): 6.0261 U/mg and 5.836 U/mg and 5.123 U/mg | Vmax mg^−1 with TbADKIN (T. brucei ADKIN; mean and SE, n = 3): 0.116 ± 0.0048 U (µmol s^−1) | Vmax/mg with TbADKIN (original value) (T. brucei ADKIN; value before revision): 6.93 ± 0.29 U (µmol . min-1) | parasites recovered after wash-out ([1]; 0.500 µM, 48 h of exposure and subsequent removal, up to 120 h): no parasites were recovered | Manual cell count ([1]; Exp. 1, 0.165 µM, 8 h wash, 8 h): 60000 cells mL-1 | Manual cell count ([1]; Exp. 1, 0.165 µM, 8 h wash, 24 h): 10000 cells mL-1 | Manual cell count ([1]; Exp. 1, 0.165 µM, 8 h wash, 48 h): 40000 cells mL-1 | Manual cell count ([1]; Exp. 1, 0.165 µM, 8 h wash, 72 h): 600000 cells mL-1 | Manual cell count ([1]; Exp. 1, 0.165 µM, 8 h wash, 96 h): 3800000 cells mL-1 | Manual cell count ([1]; Exp. 1, 0.165 µM, 8 h wash, 120 h): 1300000 cells mL-1 | Manual cell count ([1]; Exp. 1, 0.165 µM, 48 h wash, 72 h): 20000 cells mL-1 | Manual cell count ([1]; Exp. 1, 0.165 µM, 48 h wash, 96 h): 40000 cells mL-1 | Manual cell count ([1]; Exp. 1, 0.165 µM, 48 h wash, 120 h): 280000 cells mL-1 | Manual cell count ([1]; Exp. 1, 0.165 µM, Continuous, 8 h): 120000 cells mL-1 | Manual cell count ([1]; Exp. 1, 0.165 µM, Continuous, 96 h): 10000 cells mL-1 | Manual cell count ([1]; Exp. 1, 0.165 µM, Continuous, 120 h): 30000 cells mL-1 | Manual cell count ([1]; Exp. 2, 0.500 µM, 8 h wash, 8 h): 55000 cells mL-1 | Manual cell count ([1]; Exp. 2, 0.500 µM, 8 h wash, 24 h): 10000 cells mL-1 | Manual cell count ([1]; Exp. 2, 0.500 µM, 8 h wash, 48 h): 10000 cells mL-1 | Manual cell count ([1]; Exp. 2, 0.500 µM, 8 h wash, 72 h): 10000 cells mL-1 | Manual cell count ([1]; Exp. 2, 0.500 µM, 8 h wash, 96 h): 30000 cells mL-1 | Manual cell count ([1]; Exp. 2, 0.500 µM, 8 h wash, 120 h): 430000 cells mL-1 | Manual cell count ([1]; Exp. 2, 0.500 µM, Continuous, 8 h): 110000 cells mL-1 | % analogue remaining, EXP 1 / EXP 2 ([2]; microsomes, 0 min, 5 µM): 100% | % analogue remaining, Mean ([2]; microsomes, 0 min, 5 µM): 100% | metabolic stability ([2]; s9, 0.5 h): metabolically stable
